Experimental data reported in patent publication US20240360247A1, “COMPOSITIONS AND METHODS FOR TREATMENT OF CANCER” (Johns Hopkins University, priority 2021, published 2024).

What was measured:
renal cancer = settings: mouse, in vivo; cited from earlier work
β-1,4-GalT-V = target: T1, β-1,4-GalT-V (Homo sapiens, UniProt O43286); experiment: Effect of D-PDMP on IHC localization of glycosyltransferases in human CRC cells (β-1,4-GalT-V); assay type: cell-based; settings: HCT-116, D-PDMP, 24 and 96 h, vs controls
T1 construct: endogenous in cells; host or cells: HCT-116
T1 sequence (O43286 1-388): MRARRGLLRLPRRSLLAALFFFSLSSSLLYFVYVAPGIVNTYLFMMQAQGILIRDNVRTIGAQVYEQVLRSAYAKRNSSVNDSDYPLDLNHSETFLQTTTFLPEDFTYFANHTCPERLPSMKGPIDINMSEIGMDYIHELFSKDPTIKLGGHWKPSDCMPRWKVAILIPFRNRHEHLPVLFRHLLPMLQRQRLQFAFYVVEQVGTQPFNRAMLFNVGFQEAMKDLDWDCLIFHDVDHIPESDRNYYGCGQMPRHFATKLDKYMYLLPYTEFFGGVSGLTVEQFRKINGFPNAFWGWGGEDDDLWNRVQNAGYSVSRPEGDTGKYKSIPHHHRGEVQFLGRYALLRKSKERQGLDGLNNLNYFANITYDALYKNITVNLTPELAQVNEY
Protocol: (§1) HCT-116 cells were seeded (10^4) onto sterilized glass coverslips, which were then placed in 6-well sterile plastic trays and grown for 24 h in complete media. Next, the media was replaced with 2 mL of 2% serum-containing media, plus […] D-PDMP. After incubation for 24 and 96 h, the media was removed, and cells were fixed with ethanol, washed, incubated with antibody against β-1,4-GalT-V or UGCG, and photographed.

[1] = system: human colorectal cancer cells (HCT-116); experiment: [89Zr] GalT-V antibody binding and internalization (gamma counter); assay type: cell-based; settings: HCT-116 pre-incubated with D-PDMP 20 uM
Protocol: Cell cultures were incubated with increasing concentrations of [^89Zr] GalT-V antibody, washed and radioactivity was measured in an automated gamma counter (1282 Compu-gamma CS, Pharmacia/LKB Nuclear, Inc.).
Cell cultures were incubated with increasing concentrations of [^89Zr] GalT-V antibody, washed and radioactivity was measured in a gamma counter. […] GalT-V antibody binding in human coronary arterial endothelial cells (HCAEC) and human colorectal cancer cells (HCT-116) after 2-hour incubation at 37° C.
Cells were pre-incubated with and without an inhibitor of GalT-V, D-PDMP (20 uM), followed by the measurement of binding and internalization of [^89Zr] GalT-V antibody. […] GalT-V antibody (n=3, p**=0.0079).
Cells were incubated in the presence of excess unlabeled (cold, 50 ug/mL) GalT-V antibody as well as [^89Zr] GalT-V Ab. […] (n=3, p****=<0.0001). Results are shown in FIG. 24 which depicts specificity of binding and internalization of [^89Zr] GalT-V antibody in human colorectal cancer cells (HCT-116).

UGCG = target: T2, UGCG (Homo sapiens, UniProt Q16739); experiment: Effect of D-PDMP on IHC localization of glycosyltransferases in human CRC cells (UGCG); assay type: cell-based; settings: HCT-116, 10p M D-PDMP, 24 h, vs control
T2 construct: endogenous in cells; host or cells: HCT-116
T2 sequence (Q16739 1-394): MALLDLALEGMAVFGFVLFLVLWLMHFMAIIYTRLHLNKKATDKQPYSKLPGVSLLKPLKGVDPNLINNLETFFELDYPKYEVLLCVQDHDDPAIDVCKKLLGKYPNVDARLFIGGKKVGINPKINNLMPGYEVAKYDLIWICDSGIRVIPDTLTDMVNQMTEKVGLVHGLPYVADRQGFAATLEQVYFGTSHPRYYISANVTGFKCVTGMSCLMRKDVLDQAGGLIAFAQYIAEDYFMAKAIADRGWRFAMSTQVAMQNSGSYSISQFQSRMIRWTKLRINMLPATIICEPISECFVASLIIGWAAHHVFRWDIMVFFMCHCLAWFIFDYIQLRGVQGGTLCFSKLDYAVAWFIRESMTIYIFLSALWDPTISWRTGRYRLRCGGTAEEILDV
Protocol: as §1

HCT-116 cells [2] = experiment: LC-MS sphingolipid levels in HCT-116 cells; assay type: cell-based, human; settings: D-PDMP 10 μM, 24 h, vs control
Protocol: HCT-116 cells were seeded ([…]) onto sterilized (100-mm^2) plastic Petri dishes in 10 mL of medium for 24 h. Media was then changed to 2% serum-containing media, with and without D-PDMP (10 μM). After 24 h, media was removed, and total lipids were extracted, using hexane-isopropanol (3:2, by volume) in the presence of sphingolipid internal standards, and subject to MS. […] Data represent averages±SEm, N=3 biological replicates for control and 10 μM D-PDMP in (FIGS. 4A-4H), and the unpaired t-tested was used for statistical analysis.*P≤0.05,**P≤0.01]\
Sphingolipid levels in human CRC tissue and in human cultured CRC cells (HCT-116) were measured by LC-MS, as described previously (23). Visibly normal and CRC tissues (50 mg) were homogenized in chloroform-methanol (2:1), in the presence of sphingolipid internal standards. […] HCT-116 cells were grown in 100 mm^2 sterile, plastic Petri dishes. Lipid extracts were subject to LC-MS, as described (24, 25).

human endothelial cells = settings: cited from earlier work
HCT-116 cells [3] = experiment: Effect of D-PDMP on cell proliferation (3H-thymidine incorporation); assay type: cell-based, human
Protocol: HCT-116 cells were seeded (10^4/well) in 96-well sterile plastic plates, and grown for 24 h in complete medium, with 10% fetal calf serum. The media was then replaced with 2% serum-containing media (100 μL) plus ^3H-thymidine ([…]), with and without D-PDMP. After another 24 h incubation, incorporation of ^3H-thymidine into DNA was measured by scintillation spectrometry.

Q: Which results are given for CCCCCCCCCC(=O)N[C@H](CN1CCOCC1)[C@H](O)c1ccccc1 [D-PDMP, D-threo-1-phenyl-2-decanoylamino-3-morpholino-1-propanol]?
A: GalT-V mass (renal cancer): markedly reduced; tumor volume (renal cancer): markedly reduced tumor volume; GalT-V fluorescence (β-1,4-GalT-V): reduced GalT-V fluorescence; effect on binding and internalization of [89Zr] GalT-V antibody [1]: reduced the binding and internalization; UGCG immunofluorescence (UGCG): No difference; level of Cer (HCT-116 cells [2]): reduced levels; level of DHCer (HCT-116 cells [2]): reduced levels; level of DHLacCer (HCT-116 cells [2]): reduced levels; level of dihexosylceramide (HCT-116 cells [2]): reduced levels; level of dihydroGalCer/dihydroGlcCer (HCT-116 cells [2]): reduced levels; level of monohexosylceramides (HCT-116 cells [2]): reduced levels; angiogenesis (human endothelial cells): reduced angiogenesis; proliferation of HCT-116 cells (HCT-116 cells [3]; 24 and 96 h, compared to control cells): dose- and time-dependent (FIGS. 3A, 3B) decrease in proliferation; maximal effective dose (decrease in proliferation) (HCT-116 cells [3]; HCT-116, 24 and 96 h): 20 µM
